Values quoted from earlier work in US20180028591A1, “MALE AND FEMALE INFERTILITY HERBAL COMPOSITION” (priority 2016, published 2018).

Tested on: rabbit penile tissue
Conditions: by nitric oxide and PDE5 activity

For `COc1ccc(-c2oc3c(CC=C(C)C)c(O[C@@H]4O[C@H](CO)[C@@H](O)[C@H](O)[C@H]4O)cc(O)c3c(=O)c2O[C@@H]2O[C@@H](C)[C@H](O)[C@@H](O)[C@H]2O)cc1` [icariin], the “relaxation of penile tissue” value is given as “relax rabbit penile tissue”.
